Reference: ChEMBL document CHEMBL1201862, “PubChem BioAssay data set” (2004)
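Each compound was tested at five concentrations against cells in 96-well plates for 48 hours. Here, GI50 denotes the concentration required for 50% inhibition of growth.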 Active and inactive are the calls of the source. Rule as the data show it: active = GI50 up to about 1.1 µM and inactive = higher.

Experiments:
Assay in all cases: inhibition of tumour cell growth, NCI panel, 48 h
786-0 = tested on: 786-0
A498 = tested on: A498
A549 = tested on: A549
ACHN = tested on: ACHN
CAKI-1 = tested on: CAKI-1
CCRF-CEM = tested on: CCRF-CEM
COLO 205 = tested on: COLO 205
DLD-1 = tested on: DLD-1
DMS-114 = tested on: DMS-114
DMS-273 = tested on: DMS-273
EKVX = tested on: EKVX
HCC 2998 = tested on: HCC 2998
HCT-116 = tested on: HCT-116
HCT-15 = tested on: HCT-15
HL-60 = tested on: HL-60
HOP-18 = tested on: HOP-18
HOP-62 = tested on: HOP-62
HOP-92 = tested on: HOP-92
HT-29 = tested on: HT-29
IGROV-1 = tested on: IGROV-1
K562 = tested on: K562
KM-20L2 = tested on: KM-20L2
KM12 = tested on: KM12
LOX IMVI = tested on: LOX IMVI
LXFL 529 = tested on: LXFL 529
M14 = tested on: M14
M19-MEL = tested on: M19-MEL
MOLT-4 = tested on: MOLT-4
Malme-3M = tested on: Malme-3M
NCI-H226 = tested on: NCI-H226
NCI-H23 = tested on: NCI-H23
NCI-H460 = tested on: NCI-H460
NCI-H522 = tested on: NCI-H522
OVCAR-3 = tested on: OVCAR-3
OVCAR-4 = tested on: OVCAR-4
OVCAR-5 = tested on: OVCAR-5
OVCAR-8 = tested on: OVCAR-8
RPMI-8226 = tested on: RPMI-8226
RXF 393 = tested on: RXF 393
SF-268 = tested on: SF-268
SF-295 = tested on: SF-295
SF-539 = tested on: SF-539
SK-MEL-28 = tested on: SK-MEL-28
SK-MEL-2 = tested on: SK-MEL-2
SK-MEL-5 = tested on: SK-MEL-5
SK-OV-3 = tested on: SK-OV-3
SN12C = tested on: SN12C
SNB-19 = tested on: SNB-19
SNB-75 = tested on: SNB-75
SNB-78 = tested on: SNB-78
SR = tested on: SR
SW-620 = tested on: SW-620
TK-10 = tested on: TK-10
U-251 = tested on: U-251
UACC-257 = tested on: UACC-257
UACC-62 = tested on: UACC-62
UO-31 = tested on: UO-31
XF498 = tested on: XF498
RXF 631 = tested on: RXF 631

## CN(C)CCCSc1c2ccccc2nc2cc(NCC(=O)Nc3ccccc3-c3ccccc3NC(=O)CNc3ccc4c(SCCCN(C)C)c5ccccc5nc4c3)ccc12
786-0
  GI50: > 100 µM (inactive)
A498
  GI50: > 100 µM (inactive)
A549
  GI50: > 100 µM (inactive)
ACHN
  GI50: > 100 µM (inactive)
CAKI-1
  GI50: > 100 µM (inactive)
CCRF-CEM
  GI50: 25.3 µM (inactive)
COLO 205
  GI50: 45.1 µM (inactive)
DLD-1
  GI50: > 100 µM (inactive)
DMS-114
  GI50: > 100 µM (inactive)
DMS-273
  GI50: > 100 µM (inactive)
EKVX
  GI50: > 100 µM (inactive)
HCC 2998
  GI50: > 100 µM (inactive)
HCT-116
  GI50: > 100 µM (inactive)
HCT-15
  GI50: > 100 µM
HL-60
  GI50: 18.3 µM (inactive)
HOP-18
  GI50: > 100 µM (inactive)
HOP-62
  GI50: > 100 µM (inactive)
HOP-92
  GI50: > 100 µM (inactive)
HT-29
  GI50: > 100 µM (inactive)
IGROV-1
  GI50: > 100 µM (inactive)
K562
  GI50: 71.4 µM (inactive)
KM-20L2
  GI50: > 100 µM (inactive)
KM12
  GI50: 84.3 µM (inactive)
LOX IMVI
  GI50: > 100 µM (inactive)
LXFL 529
  GI50: > 100 µM (inactive)
M14
  GI50: > 100 µM (inactive)
M19-MEL
  GI50: 49.7 µM (inactive)
MOLT-4
  GI50: 26.5 µM (inactive)
Malme-3M
  GI50: 59.4 µM (inactive)
NCI-H226
  GI50: > 100 µM (inactive)
NCI-H23
  GI50: > 100 µM (inactive)
NCI-H460
  GI50: > 100 µM (inactive)
NCI-H522
  GI50: > 100 µM (inactive)
OVCAR-3
  GI50: > 100 µM (inactive)
OVCAR-4
  GI50: > 100 µM (inactive)
OVCAR-5
  GI50: > 100 µM (inactive)
OVCAR-8
  GI50: > 100 µM (inactive)
RPMI-8226
  GI50: 65 µM (inactive)
RXF 393
  GI50: > 100 µM (inactive)
SF-268
  GI50: > 100 µM (inactive)
SF-295
  GI50: > 100 µM (inactive)
SF-539
  GI50: > 100 µM (inactive)
SK-MEL-28
  GI50: > 100 µM (inactive)
SK-MEL-2
  GI50: > 100 µM (inactive)
SK-MEL-5
  GI50: > 100 µM (inactive)
SK-OV-3
  GI50: > 100 µM (inactive)
SN12C
  GI50: > 100 µM (inactive)
SNB-19
  GI50: > 100 µM (inactive)
SNB-75
  GI50: > 100 µM (inactive)
SNB-78
  GI50: > 100 µM (inactive)
SR
  GI50: > 100 µM (inactive)
SW-620
  GI50: > 100 µM (inactive)
TK-10
  GI50: > 100 µM (inactive)
U-251
  GI50: > 100 µM (inactive)
UACC-257
  GI50: > 100 µM (inactive)
UACC-62
  GI50: > 100 µM (inactive)
UO-31
  GI50: > 100 µM (inactive)
XF498
  GI50: 71.8 µM (inactive)

## C=CC(=O)Nc1ccccc1CC(c1c[nH]c2ccccc12)c1c[nH]c2ccccc12
786-0
  GI50: 18.8 µM (inactive)
A549
  GI50: 23.4 µM (inactive)
CAKI-1
  GI50: 18.2 µM (inactive)
CCRF-CEM
  GI50: 19.9 µM (inactive)
COLO 205
  GI50: 16.7 µM (inactive)
DMS-114
  GI50: 15.5 µM (inactive)
DMS-273
  GI50: 17.7 µM (inactive)
EKVX
  GI50: 17.5 µM (inactive)
HCC 2998
  GI50: 18.7 µM (inactive)
HCT-15
  GI50: 18.7 µM
HOP-62
  GI50: 19.6 µM (inactive)
HT-29
  GI50: 18.3 µM (inactive)
IGROV-1
  GI50: 18.2 µM (inactive)
K562
  GI50: 20.7 µM (inactive)
KM12
  GI50: 19.7 µM (inactive)
LOX IMVI
  GI50: 18.5 µM (inactive)
LXFL 529
  GI50: 16.1 µM (inactive)
M14
  GI50: 16.3 µM (inactive)
M19-MEL
  GI50: 15.6 µM (inactive)
MOLT-4
  GI50: 19.5 µM (inactive)
Malme-3M
  GI50: 18 µM (inactive)
NCI-H226
  GI50: 21.3 µM (inactive)
NCI-H23
  GI50: 20 µM (inactive)
NCI-H522
  GI50: 22.8 µM (inactive)
OVCAR-3
  GI50: 17.7 µM (inactive)
OVCAR-8
  GI50: 16.4 µM (inactive)
RPMI-8226
  GI50: 17.5 µM (inactive)
RXF 393
  GI50: > 10 µM (inactive)
RXF 631
  GI50: 16.7 µM (inactive)
SF-268
  GI50: 24.1 µM (inactive)
SF-295
  GI50: 22.1 µM (inactive)
SF-539
  GI50: 21.3 µM (inactive)
SK-MEL-28
  GI50: 17.8 µM (inactive)
SK-MEL-2
  GI50: 17.7 µM (inactive)
SK-MEL-5
  GI50: 17.6 µM (inactive)
SK-OV-3
  GI50: 19.8 µM (inactive)
SN12C
  GI50: 16.3 µM (inactive)
SNB-19
  GI50: 17.9 µM (inactive)
SNB-75
  GI50: 14.1 µM (inactive)
SNB-78
  GI50: 16.3 µM (inactive)
SW-620
  GI50: 20.2 µM (inactive)
TK-10
  GI50: 26.7 µM (inactive)
UACC-257
  GI50: 18.9 µM (inactive)
UACC-62
  GI50: 16.6 µM (inactive)
UO-31
  GI50: 15.9 µM (inactive)
XF498
  GI50: 21.1 µM (inactive)

## CCN(CC)CCN1CCc2c([nH]c3ccccc23)C1c1cccnc1 (configuration not stated)
786-0
  GI50: > 100 µM (inactive)
A498
  GI50: > 100 µM (inactive)
A549
  GI50: > 100 µM (inactive)
ACHN
  GI50: > 100 µM (inactive)
CAKI-1
  GI50: > 100 µM (inactive)
CCRF-CEM
  GI50: 94.6 µM (inactive)
DLD-1
  GI50: > 100 µM (inactive)
DMS-114
  GI50: > 100 µM (inactive)
DMS-273
  GI50: > 100 µM (inactive)
EKVX
  GI50: > 100 µM (inactive)
HCC 2998
  GI50: > 100 µM (inactive)
HCT-116
  GI50: > 100 µM (inactive)
HCT-15
  GI50: > 100 µM
HL-60
  GI50: 99.3 µM (inactive)
HOP-18
  GI50: > 100 µM (inactive)
HOP-62
  GI50: > 100 µM (inactive)
HOP-92
  GI50: 65 µM (inactive)
HT-29
  GI50: > 100 µM (inactive)
IGROV-1
  GI50: > 100 µM (inactive)
K562
  GI50: 88.9 µM (inactive)
KM-20L2
  GI50: > 100 µM (inactive)
KM12
  GI50: > 100 µM (inactive)
LOX IMVI
  GI50: > 100 µM (inactive)
LXFL 529
  GI50: > 100 µM (inactive)
M14
  GI50: > 100 µM (inactive)
M19-MEL
  GI50: > 100 µM (inactive)
MOLT-4
  GI50: > 100 µM (inactive)
NCI-H23
  GI50: > 100 µM (inactive)
NCI-H460
  GI50: > 100 µM (inactive)
NCI-H522
  GI50: > 100 µM (inactive)
OVCAR-3
  GI50: > 100 µM (inactive)
OVCAR-4
  GI50: > 100 µM (inactive)
OVCAR-5
  GI50: > 100 µM (inactive)
OVCAR-8
  GI50: > 100 µM (inactive)
RPMI-8226
  GI50: > 100 µM (inactive)
SF-268
  GI50: > 100 µM (inactive)
SF-295
  GI50: > 100 µM (inactive)
SF-539
  GI50: > 100 µM (inactive)
SK-MEL-28
  GI50: > 100 µM (inactive)
SK-MEL-5
  GI50: > 100 µM (inactive)
SK-OV-3
  GI50: > 100 µM (inactive)
SN12C
  GI50: > 100 µM (inactive)
SNB-19
  GI50: > 100 µM (inactive)
SNB-75
  GI50: 91.4 µM (inactive)
SNB-78
  GI50: > 100 µM (inactive)
SR
  GI50: > 100 µM (inactive)
SW-620
  GI50: > 100 µM (inactive)
TK-10
  GI50: > 100 µM (inactive)
U-251
  GI50: > 100 µM (inactive)
UACC-257
  GI50: 37.5 µM (inactive)
UACC-62
  GI50: > 100 µM (inactive)
UO-31
  GI50: 37.2 µM (inactive)
XF498
  GI50: > 100 µM (inactive)
